In paper PMC8143339, “PK/PD Modeling of the PDE7 Inhibitor—GRMS-55 in a Mouse Model of Autoimmune Hepatitis” (Pharmaceutics, 2021):
“Also recorded” adds a separate entry of the source.

Tests used:
PDE4B = experiment: in vitro PDE4B inhibition assay; type: biochemical; conditions: ratio of IC50 values
PDE4D = tested on: PDE4D; parameters: method as in PMID 31899535; conditions: in vitro assay at concentrations up to 200 µM; cited from earlier work
ConA-induced hepatitis = experiment: Preliminary pharmacological evaluation in ConA-induced hepatitis; type: in vivo, BALB/c mice; conditions: 8 h after ConA 20 mg/kg IV; IP pretreatment: rolipram 10, BRL-50481 50, GRMS-55 50 mg/kg; vs vehicle control
Experimental: ConA was dissolved in sterile saline (2 mg·mL^−1). The studied compounds (GRMS-55, rolipram, and BRL-50481) were dissolved in a mixture of DMSO, PEG 400, and water for injection at a ratio of 25:25:50 (v/v/v). Mice were given an IP injection of the investigated compounds or the corresponding volume of vehicle alone and, thirty minutes later, intravenously (IV) administered with ConA solution. An additional control group received vehicle alone IP instead of the studied compounds followed by IV injection of sterile saline. ConA was given at a dose of 20 mg·kg^−1. Mice were exsanguinated at several time points post-ConA injection. Blood samples were allowed to clot for 0.5 h at room temperature and then centrifuged at 3000× g for 10 min to obtain the serum, which was stored at −20 °C until further analysis.
The influence of PDE inhibitors on the levels of inflammatory mediators and transaminases in ConA-treated mice was investigated in two separate experiments. In the preliminary study, the animals were pretreated IP with GRMS-55 at a dose of 50 mg·kg^−1, the PDE4-selective inhibitor rolipram at a dose of 10 mg·kg^−1, or the PDE7-selective inhibitor BRL-50481 at a dose of 50 mg·kg^−1. Doses of the investigated compounds were chosen based on the results of previous studies. Subsequently, mice were given an IV injection of ConA and sacrificed at 8 h following mitogen dosing. The levels of TNF-α, IL-6, and IFN-γ and the activities of ALT and AST in the mouse serum were measured. This preliminary experiment allowed comparing the activity of the studied PDE inhibitors in this AIH model and helped to select the doses of GRMS-55 for a subsequent pharmacodynamic study. In the final pharmacodynamic experiment, GRMS-55 was administered at two dose levels (50 and 100 mg·kg^−1) followed by ConA administration at a dose of 20 mg·kg^−1. Animals were sacrificed at various time points post-ConA dosing (1, 2, 4, 8 and 24 h). The levels of TNF-α, IL-1β, IL-4, IL-6, IL-10, IL-12, IL-17A, and IFN-γ were measured using a multiplex Luminex assay. In addition, the activities of ALT and AST in the mouse serum were assessed. The concentration–time profiles of the selected biomarkers obtained in this experiment combined with the results of pharmacokinetic analysis allowed the development of a semi-mechanistic PK/PD/disease progression model and the investigation of concentration–effect relationships of GRMS-55.
The serum samples from the preliminary pharmacological study were analyzed using ELISA tests according to the protocols provided by the manufacturers. The TNF-α concentrations were measured using the Mouse TNF-α Quantikine ELISA Kit (R&D Systems, Minneapolis, MN, USA), while the concentrations of IL-6 and IFN-gamma were quantified by ELISA kits manufactured by Cloud-Clone Corp. (Houston, TX, USA). The absorbance of samples was measured on a POLARstar Omega multi-mode microplate reader (BMG LABTECH, Ortenberg, Germany) set at 450 nm wavelength. TNF-α, IL-1β, IL-6, IL-4, IL-10, IL-12, IL-17A, and IFN-γ serum levels in samples from pharmacodynamic experiment were determined by a premixed Magnetic Luminex Assay (R&D Systems, Inc., Minneapolis, MN, USA) according to the manufacturer’s protocol. Serum AST and ALT activities were quantified on a chemistry analyzer BS-800 (Shenzhen Mindray Bio-medical Electronics Co., Ltd., Shenzhen, China).

[1] = tested on: paw edema in collagen-induced arthritis; parameters: method as in PMID 31899535; conditions: rats with collagen-induced arthritis, PK/PD arthritis progression model; cited from earlier work
TNF-α production = tested on: TNF-α production; parameters: method as in PMID 31899535; conditions: rat lipopolysaccharide-induced endotoxemia, PK/PD model; cited from earlier work

**Q.** Which “times weaker inhibitor of PDE4B than rolipram” value (PDE4B) does the source give for `Cn1c(=O)c2c(nc(NCCc3ccccc3)n2CCCC(=O)NN=Cc2ccccc2O)n(C)c1=O` [GRMS-55, 4-(1,3-dimethyl-2,6-dioxo-8-(phenethylamino)-1,2,3,6-tetrahydro-7H-purin-7-yl)-N′-(2-hydroxybenzylidene)butanehydrazide] here?
**A.** 24.5

**Q.** And the PDE4D inhibition (PDE4D)?
**A.** not found to inhibit; also recorded: not active

**Q.** What about the “effect on serum IL-6 concentration” value (ConA-induced hepatitis) of the same compound?
**A.** decreased

**Q.** What about the “IC50, decrease of paw edema” value [1] of the same compound?
**A.** 0.26 µg/mL

**Q.** What about the “IC50, suppression of TNF-α production” value (TNF-α production) of the same compound?
**A.** 1.06 µg/mL
